# Measured values from patent publication US20250163104A1, “MACROCYCLIC IMMUNOMODULATORS” (priority 2021, published 2025).
# Where a SMILES comes first, the peptide text is derived from it. Bridges are numbered along the chain shown (N, C = ends). [ ]: non-standard residue; d: D form. The star is where a group is joined. Phe(4-COOH) = N[C@@H](Cc1ccc(C(=O)O)cc1)C(=O)O; Bip = N[C@@H](Cc1ccc(-c2ccccc2)cc1)C(=O)O; Phe(3-Me) = Cc1cccc(C[C@H](N)C(=O)O)c1; 4Pal = N[C@@H](Cc1ccncc1)C(=O)O; Cha = N[C@@H](CC1CCCCC1)C(=O)O; Cit = NC(=O)NCCC[C@H](N)C(=O)O; Carboxymethyl = O=C(O)C*; Orn = NCCC[C@H](N)C(=O)O; Dab = NCC[C@H](N)C(=O)O; Dap = NC[C@H](N)C(=O)O; Ac3c = NC1(C(=O)O)CC1; Piv = CC(C)(C)C(=O)*
# Molecular target: T1, human PD-1 / PD-L1-Ig binding on Jurkat cell line over-expressing human PD-1 (Jurkat-PD-1) (Homo sapiens, UniProt Q15116)
# T1 construct: expressed in transfected cells; host or cells: Jurkat
# Assay: Jurkat-PD-1 Cell Binding High-Content Screening Assay (CBA)
# Type: cell-based
# Settings: Jurkat HPD1_PDL1 IC50, Jurkat-PD-1 cells, PE-labeled PD-L1-Ig 20 nM final
# In short: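 Jurkat-hPD-1 cells in DMEM with 10% fetal calf serum receive test compound and are held at 37° C for 2 h. PE-labeled PD-L1-Ig is added at 20 nM final and left for 1 hour. Cells are then fixed and Hoechst-stained, and binding is measured by imaging.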
# T1 sequence (Q15116 25-288): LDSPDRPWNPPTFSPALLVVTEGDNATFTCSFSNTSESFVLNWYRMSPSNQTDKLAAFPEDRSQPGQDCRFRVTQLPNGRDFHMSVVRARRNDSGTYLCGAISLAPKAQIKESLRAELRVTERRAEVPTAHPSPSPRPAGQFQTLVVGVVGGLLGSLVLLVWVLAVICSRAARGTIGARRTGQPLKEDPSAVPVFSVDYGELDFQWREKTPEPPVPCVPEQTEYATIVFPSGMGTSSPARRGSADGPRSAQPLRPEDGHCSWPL
row,IC50 [nM],Structure (SMILES)
1,310,CC(C)C[C@@H]1NC(=O)[C@H](Cc2c[nH]c3ccccc23)NC(=O)[C@H](CC(=O)O)NC(=O)[C@H](Cc2ccc(O)cc2)NC(=O)[C@H](Cc2ccccc2)NC(=O)CSC[C@@H](C(=O)NCC(N)=O)NC(=O)[C@H]([C@@H](C)O)NC(=O)[C@H](C(C)C)NC(=O)[C@H](CC(C)C)NC(=O)[C@H](CC(N)=O)NC(=O)[C@@H](C)NC(=O)[C@H](CCCN)NC(=O)[C@H](C(C)C)NC(=O)[C@H](Cc2ccc(-c3ccccc3)cc2)NC1=O [Compound 1107] ({CH2CO}-FYDWL[Bip]V[Orn][dA]NLVTCG-NH2; thioether N-14)

# Same assay, conditions: Jurkat-PD-1 cells, PE-labeled PD-L1-Ig 20 nM final; read-out: Jurkat HPD1_PDL1 IC50
row,IC50 [nM],Structure (SMILES)
1,19.4,Cc1cccc(C[C@@H]2NC(=O)[C@H](CC(=O)O)NC(=O)[C@H](Cc3ccc(OCC(=O)O)cc3)NC(=O)[C@H](CN)NC(=O)CSC[C@@H](C(=O)N[C@@H](CCN)C(N)=O)NC(=O)[C@H](CCCN)NC(=O)[C@H](C(C)C)NC(=O)[C@H](CC3CCCCC3)NC(=O)[C@H](CCN)NC(=O)[C@@H](CC(C)C)NC(=O)[C@H](CCNC(=O)C(C)(C)C)NC(=O)[C@H](Cc3ccc(O)cc3)NC(=O)[C@H](Cc3ccc(-c4ccccc4)cc3)NC(=O)[C@H](Cc3ccc(O)cc3)NC2=O)c1 [Compound 2038] ({CH2CO}-[Dap]Y(Carboxymethyl)D[Phe(3-Me)]Y[Bip]Y[Dab](Piv)[dL][Dab][Cha]V[Orn]C[Dab]-NH2; thioether N-14)
2,15.9,CC(C)C[C@@H]1NC(=O)[C@H](Cc2c[nH]c3ccccc23)NC(=O)[C@H](CC(=O)O)NC(=O)[C@H](Cc2ccncc2)NC(=O)[C@H](Cc2ccc(OCC(=O)O)cc2)NC(=O)CSC[C@@H](C(=O)NCC(N)=O)NC(=O)[C@H](CO)NC(=O)[C@H](C(C)C)NC(=O)[C@H](CC2CCCCC2)NC(=O)[C@H](CCN)NC(=O)[C@@H](CC(C)C)NC(=O)[C@H](CCCN)NC(=O)[C@H](C(C)C)NC(=O)[C@H](Cc2ccc(-c3ccccc3)cc2)NC1=O [Compound 1406] ({CH2CO}-Y(Carboxymethyl)[4Pal]DWL[Bip]V[Orn][dL][Dab][Cha]VSCG-NH2; thioether N-14)
3,4.5,Cc1cccc(C[C@@H]2NC(=O)[C@H](CC(=O)O)NC(=O)[C@H](Cc3ccc(OCC(=O)O)cc3)NC(=O)[C@H](CN)NC(=O)CSC[C@@H](C(=O)NCC(N)=O)NC(=O)[C@H](CO)NC(=O)[C@H](C(C)C)NC(=O)[C@H](CC(C)C)NC(=O)[C@H](CCN)NC(=O)[C@@H](CC(C)C)NC(=O)[C@H](CCCN)NC(=O)[C@H](C(C)C)NC(=O)[C@H](Cc3ccc(-c4ccccc4)cc3)NC(=O)[C@H](CC(C)C)NC2=O)c1 [Compound 1264] ({CH2CO}-[Dap]Y(Carboxymethyl)D[Phe(3-Me)]L[Bip]V[Orn][dL][Dab]LVSCG-NH2; thioether N-14)
4,11.7,Cc1cccc(C[C@@H]2NC(=O)[C@H](CC(=O)O)NC(=O)[C@H](Cc3ccc(O)cc3)NC(=O)[C@H](CC(N)=O)NC(=O)CSC[C@@H](C(=O)N[C@@H](C)C(N)=O)NC(=O)[C@H]([C@@H](C)O)NC(=O)[C@H](C(C)C)NC(=O)[C@H](CC(C)C)NC(=O)[C@H](CCN)NC(=O)[C@@H](CC(C)C)NC(=O)[C@H](CCCN)NC(=O)[C@H](CCCNC(N)=O)NC(=O)[C@H](Cc3ccc(-c4ccccc4)cc3)NC(=O)[C@H](CC(C)C)NC2=O)c1 [Compound 1305] ({CH2CO}-NYD[Phe(3-Me)]L[Bip][Cit][Orn][dL][Dab]LVTCA-NH2; thioether N-14)
5,30,CC(C)C[C@H]1NC(=O)[C@H](CCCN)NC(=O)[C@H](CCC(=O)O)NC(=O)[C@H](Cc2ccc(-c3ccccc3)cc2)NC(=O)[C@H](C(C)C)NC(=O)[C@H](Cc2c[nH]c3ccccc23)NC(=O)[C@H](CC(=O)O)NC(=O)[C@H](Cc2ccc(OCC(=O)O)cc2)NC(=O)[C@H](CN)NC(=O)CSC[C@@H](C(=O)N[C@@H](C)C(N)=O)NC(=O)[C@H]([C@@H](C)O)NC(=O)[C@H](C(C)C)NC(=O)[C@H](CC2CCCCC2)NC(=O)[C@H](CO)NC1=O [Compound 1516] ({CH2CO}-[Dap]Y(Carboxymethyl)DWV[Bip]E[Orn][dL]S[Cha]VTCA-NH2; thioether N-14)
6,99.6,CC(C)C[C@@H]1NC(=O)[C@H](CCCNC(=N)N)NC(=O)[C@@H](CC(C)C)NC(=O)[C@H](CN)NC(=O)[C@H](CCCNC(=N)N)NC(=O)[C@H](Cc2ccc(-c3ccccc3)cc2)NC(=O)[C@H](C(C)C)NC(=O)[C@H](Cc2c[nH]c3ccccc23)NC(=O)[C@H](CC(=O)O)NC(=O)[C@H](Cc2ccc(O)cc2)NC(=O)[C@H](CC(N)=O)NC(=O)CSC[C@@H](C(=O)N[C@@H](C)C(N)=O)NC(=O)[C@H]([C@@H](C)O)NC(=O)[C@H](C(C)C)NC1=O [Compound 1010] ({CH2CO}-NYDWV[Bip]R[Dap][dL]RLVTCA-NH2; thioether N-14)
7,22.8,CC(C)[C@@H]1NC(=O)[C@H](Cc2c[nH]c3ccccc23)NC(=O)[C@H](CC(=O)O)NC(=O)[C@H](Cc2ccc(OCC(=O)O)cc2)NC(=O)[C@H](CN)NC(=O)CSC[C@@H](C(=O)N[C@@H](C)C(N)=O)NC(=O)[C@H]([C@@H](C)O)NC(=O)[C@H](C(C)C)NC(=O)[C@H](CC2CCCCC2)NC(=O)[C@H](CCN)NC(=O)[C@@H](Cc2ccccc2)NC(=O)[C@H](CCCN)NC(=O)[C@H](CCC(=O)O)NC(=O)[C@H](Cc2ccc(-c3ccccc3)cc2)NC1=O [Compound 1436] ({CH2CO}-[Dap]Y(Carboxymethyl)DWV[Bip]E[Orn][dF][Dab][Cha]VTCA-NH2; thioether N-14)
8,16.8,Cc1cccc(C[C@@H]2NC(=O)[C@H](CC(=O)O)NC(=O)[C@H](Cc3ccc(OCC(=O)O)cc3)NC(=O)[C@H](CN)NC(=O)CSC[C@@H](C(=O)NC3(C(N)=O)CC3)NC(=O)[C@H](CCCN)NC(=O)[C@H](C(C)C)NC(=O)[C@H](CC3CCCCC3)NC(=O)[C@H](CCN)NC(=O)[C@@H](CC(C)C)NC(=O)[C@H](CCCN)NC(=O)[C@H](Cc3ccc(O)cc3)NC(=O)[C@H](Cc3ccc(-c4ccccc4)cc3)NC(=O)[C@H](Cc3ccc(O)cc3)NC2=O)c1 [Compound 2043] ({CH2CO}-[Dap]Y(Carboxymethyl)D[Phe(3-Me)]Y[Bip]Y[Orn][dL][Dab][Cha]V[Orn]C[Ac3c]-NH2; thioether N-14)
9,17.4,CC(C)[C@@H]1NC(=O)[C@H](Cc2c[nH]c3ccccc23)NC(=O)[C@H](CC(=O)O)NC(=O)[C@H](Cc2ccc(C(=O)O)cc2)NC(=O)[C@H](Cc2ccncc2)NC(=O)CSC[C@@H](C(=O)N[C@@H](C)C(N)=O)NC(=O)[C@H]([C@@H](C)O)NC(=O)[C@H](C(C)C)NC(=O)[C@H](CC2CCCCC2)NC(=O)[C@H](CCN)NC(=O)[C@@H](Cc2ccccc2)NC(=O)[C@H](CCCN)NC(=O)[C@H](CCC(=O)O)NC(=O)[C@H](Cc2ccc(-c3ccccc3)cc2)NC1=O [Compound 1432] ({CH2CO}-[4Pal][Phe(4-COOH)]DWV[Bip]E[Orn][dF][Dab][Cha]VTCA-NH2; thioether N-14)
10,7.5,CC(C)C[C@H]1NC(=O)[C@H](CCCN)NC(=O)[C@H](CCCNC(N)=O)NC(=O)[C@H](Cc2ccc(-c3ccccc3)cc2)NC(=O)[C@H](C(C)C)NC(=O)[C@H](Cc2c[nH]c3ccccc23)NC(=O)[C@H](CC(=O)O)NC(=O)[C@H](Cc2cccs2)NC(=O)[C@H](CN)NC(=O)CSC[C@@H](C(=O)N[C@@H](C)C(N)=O)NC(=O)[C@H]([C@@H](C)O)NC(=O)[C@H](C(C)C)NC(=O)[C@H](CC2CCCCC2)NC(=O)[C@H](CCN)NC1=O [Compound 2128]
